Results from patent US20230390235A1, “THERAPEUTIC AGENT FOR COVID-19” (priority 2020, published 2023).

Tests used:
[1] = system: SARS-CoV-2 S pseudotype virus N501Y mutant strain; type: cell-based
[2] = system: SARS-CoV-2 S pseudotype virus B.1.429 mutant strain (ε strain); type: cell-based; settings: ε mutant strain (B.1.429); 100 μM; ACE2-expressing HEK293T cells; GFP fluorescence; FIG. 1

COCCOCCOC(=O)N[C@@H](CC(C)C)C(=O)N[C@@H](Cc1ccccc1)C(=O)C(=O)NC1CC1 [SNJ-1945]
entry inhibition of pseudotype virus into cells [1]: inhibits entry | entry inhibition of pseudotype virus into cells [2]: inhibits entry
